Results: patent US8409550B2, “Method for treating skin with retinoids and retinoid boosters” (Unilever Home & Personal Care, USA, Division of Conopco, …, priority 2000, dated 2013)

Assays:
[1] = system: transglutaminase (TGase I); experiment: Transglutaminase (Tgase) ELISA assay in cultured keratinocytes with retinol and boosters; format: cell-based, human; details: for Tgase levels (Mean): with 10^-7 M retinol
Retinol Dehydrogenase = experiment: Assay for retinol dehydrogenase activity, rat liver microsomes (to identify B2); format: biochemical; details: test compound final 100 μM
Protocol: 2.2 Isolation of Rat Liver Microsomes (4)
The resulting homogenate was successively centrifuged for 30 min. at 10,000 g, 30 min. at 20,000 g, and 15 min. at 30,000 g, and the resulting supernatant was ultra-centrifuged for 80 min. at 105,000 g. […] Protein concentrations were determined as described above.
2.4 Assay for Retinol Dehydrogenase Activity (to Identify B2)
The following stock solutions were prepared:
50 mM KH2PO4, pH 7.4 buffer, sterile filtered.
10 mM all trans Retinol (Sigma 87632) in DMSO.
200 mM Nicotinamide adenine dinucleotide phosphate, sodium salt (NADP) (Sigma N0505) in sterile water.
40 mM test compound in appropriate solvent (water, buffer, ethanol, chloroform or DMSO).
1:10 dilution of rat liver Microsomes in 50 mM KH2PO4, pH 7.4 buffer (4 μg/μl).
In a two-dram glass vial with screw cap, the following were added in order:
Buffer to give a final volume of 400 μl
25 μl diluted Microsomes (final=100 μg)—boiled Microsomes were used for controls and regular Microsomes for test samples.
4 μl of 200 mM NADP (final=2 mM)
1 μl of 40 mM test compound (final=100 μM)
8 μl of 10 mM retinol (final=200 μM)
The vials were incubated in a 37° C. shaking water bath for 45 minutes. 500 μl ice-cold ethanol was added to each vial to quench the reaction. The retinoids were extracted twice with ice cold hexane (2.7 ml per extraction). […]

With Phosphatidyl Choline as the substance, how does the “TG as % C Compd 1” value ([1]; Compound 1 alone, concentration one log below IC20, in the presence of 10^-7M retinol) read?
The value was 88 % C.

What about the “TG as % C Compd 2” value ([1]; Compound 2 alone, concentration one log below IC20, in the presence of 10^-7M retinol) of the same substance?
The value was 88 % C.

What about the “TG as % C, Compd 3” value ([1]; Compound 3 alone, concentration one log below IC20, in the presence of 10^-7M retinol) of the same substance?
The value was 88 % C.

What about the “Tgase levels (Mean)” value ([1]; booster 1.2E−08 Molar) of the same substance?
Its value is 159 % of control.

And the “Tgase levels (Mean)” value ([1]; booster 1.47E−05 Molar)?
Its value is 120.3 % of control.

What about the “Tgase levels (Mean)” value ([1]; booster 1.63E−06 Molar) of the same substance?
Its value is 98.8 % of control.

What about the “Tgase levels (Mean)” value ([1]; booster 1.8E−07 Molar) of the same substance?
The value was 75.9 % of control.

What about the “Tgase levels (Mean)” value ([1]; booster 2.4E−09 Molar) of the same substance?
Its value is 85.5 % of control.

What about the “Tgase levels (Mean)” value ([1]; booster 4.4E−05 Molar) of the same substance?
The value was 90.9 % of control.

What about the “Tgase levels (Mean)” value ([1]; booster 4.89E−06 Molar) of the same substance?
Its value is 70.1 % of control.

And the “Tgase levels (Mean)” value ([1]; booster 5.43E−07 Molar)?
The value was 86.7 % of control.

What about the “Tgase levels (Mean)” value ([1]; booster 6.0E−08 Molar) of the same substance?
Its value is 87.8 % of control.

What about the “TG as % C Compd 1” value ([1]; compound 1 alone, with retinol, concentration one log below IC20) of the same substance?
The value was 98 % C.

And the “TG as % C Compd 2” value ([1]; compound 2 alone, with retinol, concentration one log below IC20, listed as Phospahtidylcholine)?
Its value is 97 % C.

What about the “TG as % C Compd 2” value ([1]; compound 2 alone, with retinol, concentration one log below IC20, listed as Phosphatidyl choline) of the same substance?
The value was 98 % C.

And the “TG as % C Compd 2” value ([1]; compound 2 alone, with retinol, concentration one log below IC20, listed as Phosphatidylcholine)?
The value was 97 % C.

What about the “% Increase Retinol Dehydrogenase” value (Retinol Dehydrogenase) of the same substance?
The value was 21% increase.
